In experiment [1] the test system is MCF-10A cell line. Briefly: BRCA1 synthetic lethality assay, colony formation with crystal violet staining, BRCA1/2 wild-type cells. The class given is cell-based. The protocol: (§1) In this experimental example, whether the compound according to the present invention had synthetic lethal efficacy with BRCA1 activity was tested by examining the colony formation of tumor cells. MDA-MB-436 cells (ATCC, #HTB-130), a triple-negative breast cancer cell line with reduced BRCA1 activity due to BRCA1 mutation, and MCF-10A cell line (ATCC, #CRL-10317), which has wild-type BRCA1/2 genes and is used as a model of normal breast cells, were cultured in their respective culture media (MDA-MB-436: L-15 +10 […] + 10% fetal bovine serum (FBS), MCF-10A: MEGM + 100 ng/mL cholera toxin), and then seeded in 6-well plates at a concentration of 10,000 cells per well for the MDA-MB-436 cells and 120 cells per well for the MCF-10A cell line. […] The crystal violet stained in the cells was extracted by treating the cells with 500 µL of 10% acetic acid for 20 minutes at room temperature for quantitative analysis. 150 µL of the extracted crystal violet was placed in two wells of a 96-well plate, and the absorbance was measured at 565 nm. The absorbance was quantified relative to the absorbance value of a blank sample containing only DMSO but not the compound of the present invention.

Experiment [2] concerns MDA-MB-436 cells. Briefly: BRCA1 synthetic lethality assay, colony formation with crystal violet staining, BRCA1 mutant cells. To be noted: cultured for 21 days. The class given is cell-based. The procedure:
as §1

The target in experiment [3] is USP1 enzyme (Homo sapiens, UniProt O94782). Briefly: Biochemical analysis of USP1 enzyme activity (ubiquitin-rhodamine 110 deubiquitination, fluorescence). To be noted: ubiquitin-rhodamine 110 substrate, 10 minutes pre-incubation, 30 minutes reaction at room temperature; read-out: Enzyme activity IC50 grade. The procedure:
In this experimental example, the inhibitory effect of the compounds according to the present invention and the positive control compound on USP1 deubiquitinating activity was tested using a biochemical enzymatic assay. Ubiquitin-rhodamine 110 was used as a substrate for measuring deubiquitinating activity. This substrate compound is a substance in which rhodamine 110 is linked to the glycine residue at the C-terminus of ubiquitin by an amide bond. When this amide bond is cleaved by the deubiquitinating activity, a fluorescent signal is counted.
Subsequently, analytical buffer solution (50 mM hydroxyethylpiperazineethanesulfonic acid (HEPES) containing USP1 enzyme, 100 mM NaCl, 2 mM tris(2-carboxyethyl)phosphine (TCEP), and 100 µg/mL bovine serum albumin (BSA)) were added to each well of the plate and incubated at room temperature for 10 minutes. Subsequently, analytical y buffer solution containing ubiquitin-rhodamine 110 was added to each well and reacted at room temperature for 30 minutes.

For experiment [4], the system named is MDA-MB-436. Briefly: Cell survival analysis (CellTiter-Glo, 10 days culture). The settings on record: Homo sapiens, 240 h; MDA-MB-436 cell line, cultured for 10 days, CellTiter-Glo; read-out: Cell growth IC50 grade. The class given is cell-based. The procedure: In this experimental example, the cell growth inhibitory effect of compounds according to the present invention and positive control compounds in tumor cell lines was examined.
MDA-MB-436 (ATCC, #HTB-130) cell line was cultured in cell culture medium (Leibovitz's L-15 (GIBCO catalog no. 11415064) + 10 µg/mL insulin (Yeasen catalog no. 40112ES25) + 16 µg/mL glutathione (GIBCO catalog no. 25030-081) + 10% fetal bovine serum (FBS) (Excell Bio catalog no. FSP500)). 3,000 MDA-MB-436 cells were plated per well in a 96-well plate and cultured for 1 day at 37°C in 5% CO2. […] The cells were then cultured in a cell incubator for 10 days, and the cell culture medium containing the compound was replaced on the 5th day of culture. Cell survival rate was analyzed for luminescence using the Promega CellTiter-Glo Luminescent Cell Viability Assay Kit (Promega catalog number G7573), and the luminescence was measured using a PerkinElmer EnVision instrument. The percentage of cell growth inhibition rate was calculated from the measured relative luminescence unit (RLU) as follows. Inhibition rate = 1−((RLU compound−RLU blank)/(RLU control−RLU blank)) × 100 [formula]
For orientation: Cellular ATP, detected with luciferase, serves as a proxy for viable cell number.

Sequence of USP1 enzyme (O94782 whole entry): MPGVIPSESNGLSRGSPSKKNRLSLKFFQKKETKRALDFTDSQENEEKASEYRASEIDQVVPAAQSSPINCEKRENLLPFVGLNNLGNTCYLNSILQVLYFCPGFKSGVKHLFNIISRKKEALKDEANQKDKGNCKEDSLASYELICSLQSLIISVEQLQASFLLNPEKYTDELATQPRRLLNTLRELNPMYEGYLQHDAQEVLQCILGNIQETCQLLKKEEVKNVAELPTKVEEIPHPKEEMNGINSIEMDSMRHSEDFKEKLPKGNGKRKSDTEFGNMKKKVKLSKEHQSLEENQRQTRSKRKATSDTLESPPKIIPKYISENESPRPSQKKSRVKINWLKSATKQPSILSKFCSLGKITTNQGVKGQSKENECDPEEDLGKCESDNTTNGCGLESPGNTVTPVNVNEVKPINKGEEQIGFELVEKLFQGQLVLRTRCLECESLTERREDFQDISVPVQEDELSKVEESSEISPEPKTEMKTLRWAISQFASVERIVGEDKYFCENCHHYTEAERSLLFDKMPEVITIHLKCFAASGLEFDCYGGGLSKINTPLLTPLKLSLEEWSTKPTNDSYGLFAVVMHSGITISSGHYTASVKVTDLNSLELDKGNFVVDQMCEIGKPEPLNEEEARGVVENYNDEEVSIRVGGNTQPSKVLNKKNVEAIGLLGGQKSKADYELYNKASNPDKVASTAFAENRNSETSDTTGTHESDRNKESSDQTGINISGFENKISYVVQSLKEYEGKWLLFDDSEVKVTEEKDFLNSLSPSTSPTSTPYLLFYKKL
Sequence of USP1 enzyme (Q8TAF3 whole entry partner): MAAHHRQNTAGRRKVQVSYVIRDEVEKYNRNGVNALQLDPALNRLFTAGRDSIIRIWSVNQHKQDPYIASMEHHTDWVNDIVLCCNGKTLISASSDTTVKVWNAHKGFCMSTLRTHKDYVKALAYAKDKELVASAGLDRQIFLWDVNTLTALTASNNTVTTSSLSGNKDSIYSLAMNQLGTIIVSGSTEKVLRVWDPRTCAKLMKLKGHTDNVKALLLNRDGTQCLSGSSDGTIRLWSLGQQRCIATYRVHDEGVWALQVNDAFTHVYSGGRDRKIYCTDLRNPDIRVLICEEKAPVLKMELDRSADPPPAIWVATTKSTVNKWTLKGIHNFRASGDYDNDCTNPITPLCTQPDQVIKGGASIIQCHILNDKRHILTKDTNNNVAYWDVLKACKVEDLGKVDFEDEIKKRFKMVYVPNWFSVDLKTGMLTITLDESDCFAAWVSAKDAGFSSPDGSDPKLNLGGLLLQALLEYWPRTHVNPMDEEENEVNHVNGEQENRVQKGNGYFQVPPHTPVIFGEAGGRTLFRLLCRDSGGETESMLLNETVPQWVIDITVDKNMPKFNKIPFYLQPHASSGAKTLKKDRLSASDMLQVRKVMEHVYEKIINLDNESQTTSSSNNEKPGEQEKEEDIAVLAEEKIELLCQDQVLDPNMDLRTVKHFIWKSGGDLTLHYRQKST

By IC50 is commonly meant the point on the concentration scale where inhibition reaches its midpoint. `COc1cccc(C2CC2)c1-c1ncc(P(C)(C)=O)c(NCc2ccc(-c3nc(C(F)(F)F)cn3C)cc2)n1` [Example 1, (2-(2-cyclopropyl-6-methoxyphenyl)-4-((4-(1-methyl-4-(trifluoromethyl)-1H-imidazol-2-yl)benzyl)amino)pyrimidin-5-yl)dimethylphosphine oxide]: the “crystal violet extraction amount” value in experiment [1] (MCF-10A cells with wild-type BRCA1/2, cultured for 21 days, absorbance at 565 nm relative to DMSO blank, Fig. 1 A) is “no different from that of the DMSO blank”; in experiment [2] (MDA-MB-436 cells with reduced BRCA1 activity, absorbance at 565 nm relative to DMSO blank, Fig. 1 A) it was “less than one-fifth of that of the DMSO blank”. The colony formation entry is given as “formed colonies at a normal level” in experiment [1] (MCF-10A cells, cultured for 21 days, compared with DMSO blank sample, Fig. 1 B) and “significantly reduced” in experiment [2] (MDA-MB-436 cells, compared with DMSO blank sample, Fig. 1 B). In addition, the results for the IC50 in experiment [3] and in experiment [4] were 50 to 100 nM and 100 to 500 nM, respectively.

These data come from patent publication EP4737452A1, “NOVEL PYRIMIDINE DERIVATIVES” (Aigen Sciences Inc., priority 2023, dated 2025).
